# According to patent US20090048196A1, “Membrane receptor for retinol binding protein mediates cellular uptake of vitamin A, methods of use and compositions” (THE REGENTS OF THE UNIVERSITY OF CALIFORNIA, priority 2007, published 2009):
# Experiments:
# Format in all cases: cell-based
# [1] = test system: human STRA6; assay: STRA6 expression in WiDr cells (semi-quantitative PCR); settings: 100 nM RNAi oligo, 65 hrs
# Protocol: RNAi transfection and retinoic acid treatment of human WiDr colon adenocarcinoma cells: WiDr cells (American Type Culture Collection) were grown in Earle's balanced salt media with 10% FBS at 37° C. in a 95% air/5% CO2 humidified incubator. Human STRA6 RNAi oligo sequences were 5′-[…]-3′ (S-1) (SEQ ID NO:3), 5′-[…]-3′ (S-2) (SEQ ID NO:4); and 5′-[…]-3′ (S-3) (SEQ ID NO:5). Stealth™ negative control RNAi with medium GC (Invitrogen) was used for a negative control. WiDr cells were transfected with 100 nM RNAi oligos using DharmaFect1 (Dharmacon) according to the manufacture's protocol. WiDr Cells were split one day before RNAi transfection and cells were incubated with RNAi oligos for 65 hrs after transfection. Retinoic acid treatment was applied for 55 hours. RNA was isolated from WiDr cells using the RNeasy kit (Qiagen). Reverse transcription was performed with Invitrogen's SuperScriptIII First-Strand Synthesis System. Semi-Quantitative PCR was carried out for 24 cycles at 95° C. for 30 sec (denaturation), 63° C. for 30 sec (annealing), and 72° C. for 30 min (extension). cDNA synthesized from 40 ng of total RNA was used for each reaction. Primers used for PCR to detect human STRA6 were 5′-[…]-3′ (human STRA6 forward primer (SEQ ID NO:6)), 5′-[…]-3′ (human STRA6 reverse primer (SEQ ID NO:7)).
# [2] = test system: WiDr human colon adenocarcinoma cells; assay: Vitamin A uptake activity of WiDr cells from 3H-retinol/RBP; settings: 100 nM RNAi oligo, 65 hrs
# Protocol: (§1) Production of ^3H-retinol loaded RBP and retinol uptake assay based on ^3H-retinol/RBP: Apo-RBP was prepared from holo-RBP as described (3). Radioactive retinol (15-^3H(N)-retinol) was purchased from American Radiolabeled Chemicals Inc. Ten micrograms apo-His-RBP was incubated with 150 pmol retinol (3 μCi) at 24° C. overnight. Radiolabeled holo-His-RBP was bound to Ni-NTA resin and the resin was washed extensively with 10 mM imidazole in PBS. Radiolabeled His-RBP was eluted with 100 mM imidazole in PBS. For the vitamin A uptake assay, transfected or untransfected cells grown on 12-well or 24-well cell culture plates were washed once with PBS and incubated with the ^3H-retinol/RBP diluted in SFM for various lengths of time. The reactions were stopped by washing the cells with PBS and solubilizing cells in 1% Triton X-100 in PBS. Radioactivity was measured with a scintillation counter.
# Effects of metabolic inhibitors on vitamin A uptake and endocytosis: To test the effect of metabolic inhibitors, cells were pretreated with metabolic inhibitors in serum free medium (50 mM 2-deoxyglucose and 5 mM sodium azide) at 37° C. for 30 min before incubation with ^3H-retinol/RBP for 45 min at 37° C. in the continued presence of the metabolic inhibitors. The slight increase in activity for MI-treated cells as shown in FIGS. 4C and 4D is reproducible. Endocytosis assay based on horseradish peroxidase (HRP) was performed similarly as described. Cells (80-100% confluence) were washed once with PBS and then incubated in SFM with or without metabolic inhibitors for 30 min at 37° C. […]
# RNAi transfection and retinoic acid treatment of human WiDr colon adenocarcinoma cells: WiDr cells (American Type Culture Collection) were grown in Earle's balanced salt media with 10% FBS at 37° C. in a 95% air/5% CO2 humidified incubator. […] Semi-Quantitative PCR was carried out for 24 cycles at 95° C. for 30 sec (denaturation), 63° C. for 30 sec (annealing), and 72° C. for 30 min (extension). cDNA synthesized from 40 ng of total RNA was used for each reaction. […]
# [3] = test system: bovine STRA6; assay: STRA6 expression in primary bovine RPE culture (semi-quantitative PCR); settings: 100 nM RNAi oligo, transfected twice, 72 h each
# Protocol: Primary culture and RNAi transfection of bovine RPE cells: Primary cultures of RPE cells were derived from adult bovine eyes obtained from a local slaughterhouse. After the removal of vitreous and retina, the posterior half of the eye was incubated in 2% Dispase solution (Boehringer Mannheim) for 2 h. Sheets of RPE cells were then collected and washed with Hanks' Balanced salt solution (Irvine Scientific). The RPE cells were exposed to 0.05% Trypsin and 0.02% EDTA solution for 5 minutes at room temperature. The RPE cells were suspended in CEM replacement medium containing 10% calf serum and 1% penicillin-streptomycin as described previously (12), and the cells were then seeded at a density of 3×10^5 cells/cm^2 onto 12 mm millicell-PCF culture wells with a pore size of 0.45 um (Millipore Corp.). The RPE cells were maintained at 37° C. in a 5% CO2 incubator for 10 days before RNAi transfection. For RNAi transfection, bovine RPE cells were washed once with PBS and incubated in fresh DMEM/10% FBS media. Cells were transfected with 100 nM RNAi oligos (Stealth RNAi, Invitrogen) using DharmaFect1 according to manufacturer's protocol and incubated at 37° C. for 72 h. Cells were then transfected under the same conditions and incubated for another 72 h. RNAi oligo sequences used for this assay were 5′-[…]-3′ (S-4) (SEQ ID NO:8), 5′-[…]-3′ (S-5) (SEQ ID NO:9) and 5′-[…]-3′ (S-6) (SEQ ID NO:10). Semi-quantitative PCR was carried out for 26 cycles at 95° C. for 30 sec (denaturation), 60° C. for 30 sec (annealing), and 72° C. for 30 min (extension). cDNA synthesized from 32 ng of total RNA was used for each reaction. Primers used for PCR reaction to detect bovine STRA6 are 5′-[…]-3′ (forward primer (SEQ ID NO:11)), 5′-[…]-3′ (reverse primer (SEQ ID NO:12)).
# [4] = test system: primary bovine RPE culture; assay: Vitamin A uptake activity of primary bovine RPE culture from holo-RBP; settings: 100 nM RNAi oligo, transfected twice, 72 h each
# Protocol: as §1
# Primary culture and RNAi transfection of bovine RPE cells: Primary cultures of RPE cells were derived from adult bovine eyes obtained from a local slaughterhouse. After the removal of vitreous and retina, the posterior half of the eye was incubated in 2% Dispase solution (Boehringer Mannheim) for 2 h. Sheets of RPE cells were then collected and washed with Hanks' Balanced salt solution (Irvine Scientific). The RPE cells were exposed to 0.05% Trypsin and 0.02% EDTA solution for 5 minutes at room temperature. The RPE cells were suspended in CEM replacement medium containing 10% calf serum and 1% penicillin-streptomycin as described previously (12), and the cells were then seeded at a density of 3×10^5 cells/cm^2 onto 12 mm millicell-PCF culture wells with a pore size of 0.45 um (Millipore Corp.). The RPE cells were maintained at 37° C. in a 5% CO2 incubator for 10 days before RNAi transfection. […] Semi-quantitative PCR was carried out for 26 cycles at 95° C. for 30 sec (denaturation), 60° C. for 30 sec (annealing), and 72° C. for 30 min (extension). cDNA synthesized from 32 ng of total RNA was used for each reaction. […]
Substance,STRA6 expression [1],Vitamin A uptake activity [2],STRA6 expression [3],Vitamin A uptake activity [4]
"S-1: Human STRA6 RNAi oligo 5′-UGAAGCUCAUCCAACAGAAUAUGGC-3′ (SEQ ID NO:3) (listed as RNA, chemistry not given here)",suppresses,suppresses,,
"S-2: Human STRA6 RNAi oligo 5′-UAGAUGCAGUGUCUCAAGCAGACGC-3′ (SEQ ID NO:4) (listed as RNA, chemistry not given here)",suppresses,suppresses,,
"S-3: Human STRA6 RNAi oligo 5′-UGAGUAAGCAGGACAAGACCAAGGC-3′ (SEQ ID NO:5) (listed as RNA, chemistry not given here)",suppresses,suppresses,,
"S-4: Bovine STRA6 RNAi oligo 5′-CCGUCUACAUUCCACAACAAGGAUU-3′ (SEQ ID NO:8) (listed as RNA, chemistry not given here)",,,suppresses,suppresses
"S-5: Bovine STRA6 RNAi oligo 5′-GGCUACCACACAUACUGCAACUUCU-3′ (SEQ ID NO:9) (listed as RNA, chemistry not given here)",,,suppresses,suppresses
"S-6: Bovine STRA6 RNAi oligo 5′-GAGGAUUCCUAUGACAGCUGGUACA-3′ (SEQ ID NO:10) (listed as RNA, chemistry not given here)",,,suppresses,suppresses
